# Experimental data taken from ChEMBL document CHEMBL5126604, “Design, Synthesis, and Biological Evaluation of Pyrrole-2-carboxamide Derivatives as Mycobacterial Membrane Protein Large 3 Inhibitors for Treating Drug-Resistant Tuberculosis” (J Med Chem, 2022).
# Experiments:
# [1] = test system: Mycobacterium tuberculosis; assay: microbe, parasite or virus in culture; details: H37Rv, 168 h
# Description: Antimycobacterial activity against Mycobacterium tuberculosis H37Rv assessed as inhibition of bacterial growth measured after 7 days by microplate alamar blue assay
# [2] = Metabolic stability in mouse liver microsomes at 0.5 uM measured after 15 to 120 mins in presence of NADPH by LC-MS/MS analysis; type: ADME, Microsome; details: time 15-120 min
# [3] = Metabolic stability in mouse liver microsomes at 0.5 uM measured after 15 to 120 mins in absence of NADPH by LC-MS/MS analysis; type: ADME, Microsome; details: time 15-120 min
# [4] = molecular target: Voltage-gated inwardly rectifying potassium channel KCNH2 (Homo sapiens, UniProt Q12809)
# Description: Inhibition of hERG potassium channel in HEK293 cells at 0.3 to 30 uM by whole-cell patch clamp assay
# [5] = test system: Mycobacterium tuberculosis; type: functional, H37Rv; details: dose 100 mg/kg; route po; time 3-30 day
# in vitro = details: monkey, Vero cells
# Description: Selectivity index, ratio of IC50 for African green monkey vero cells to MIC for Mycobacterium tuberculosis H37Rv
# Vero = assay: Cytotoxicity against African green monkey vero cells assessed as reduction in cell viability measured after 48 hrs by MTT assay; type: functional, cell-based; details: Chlorocebus sabaeus
# [6] = test system: Mycobacterium tuberculosis; assay: Antimycobacterial activity against Mycobacterium tuberculosis mc2 6206 assessed as decrease in trehalose dimycolate measured after 16 hrs using [14C]acetate by TLC analysis; type: functional, organism-based; details: DDE = dose-dependent effect
# [7] = test system: Mycobacterium tuberculosis; assay: Antimycobacterial activity against Mycobacterium tuberculosis mc2 6206 assessed as decrease in mycolic acid transfer to cell wall arabinogalactan measured after 16 hrs using [14C]acetate by TLC analysis; type: functional, organism-based; details: dose 0.0625-1 µg/ml, DDE = dose-dependent effect
# [8] = test system: Mycolicibacterium smegmatis; assay: Antimycobacterial activity against Mycobacterium smegmatis harboring MsmgdeltammpL3/pMVGHI-mmpL3tb mutant assessed as reduction in bacterial growth measured after 16 hrs […]; type: functional
# [9] = test system: Mycobacterium tuberculosis; assay: microbe, parasite or virus in culture; details: H37Rv mc2 6206, 16 h
# Description: Antimycobacterial activity against Mycobacterium tuberculosis H37Rv mc2 6206 assessed as reduction in bacterial growth measured after 16 hrs by TLC analysis
# [10] = test system: Mycolicibacterium smegmatis; assay: Antimycobacterial activity against Mycobacterium smegmatis harboring MsmgdeltammpL3/pMVGHI-mmpL3tb G253E mutant assessed as reduction in bacterial growth measured after 16 hrs […]; type: functional
# Sequence of Voltage-gated inwardly rectifying potassium channel KCNH2 (Q12809 whole entry): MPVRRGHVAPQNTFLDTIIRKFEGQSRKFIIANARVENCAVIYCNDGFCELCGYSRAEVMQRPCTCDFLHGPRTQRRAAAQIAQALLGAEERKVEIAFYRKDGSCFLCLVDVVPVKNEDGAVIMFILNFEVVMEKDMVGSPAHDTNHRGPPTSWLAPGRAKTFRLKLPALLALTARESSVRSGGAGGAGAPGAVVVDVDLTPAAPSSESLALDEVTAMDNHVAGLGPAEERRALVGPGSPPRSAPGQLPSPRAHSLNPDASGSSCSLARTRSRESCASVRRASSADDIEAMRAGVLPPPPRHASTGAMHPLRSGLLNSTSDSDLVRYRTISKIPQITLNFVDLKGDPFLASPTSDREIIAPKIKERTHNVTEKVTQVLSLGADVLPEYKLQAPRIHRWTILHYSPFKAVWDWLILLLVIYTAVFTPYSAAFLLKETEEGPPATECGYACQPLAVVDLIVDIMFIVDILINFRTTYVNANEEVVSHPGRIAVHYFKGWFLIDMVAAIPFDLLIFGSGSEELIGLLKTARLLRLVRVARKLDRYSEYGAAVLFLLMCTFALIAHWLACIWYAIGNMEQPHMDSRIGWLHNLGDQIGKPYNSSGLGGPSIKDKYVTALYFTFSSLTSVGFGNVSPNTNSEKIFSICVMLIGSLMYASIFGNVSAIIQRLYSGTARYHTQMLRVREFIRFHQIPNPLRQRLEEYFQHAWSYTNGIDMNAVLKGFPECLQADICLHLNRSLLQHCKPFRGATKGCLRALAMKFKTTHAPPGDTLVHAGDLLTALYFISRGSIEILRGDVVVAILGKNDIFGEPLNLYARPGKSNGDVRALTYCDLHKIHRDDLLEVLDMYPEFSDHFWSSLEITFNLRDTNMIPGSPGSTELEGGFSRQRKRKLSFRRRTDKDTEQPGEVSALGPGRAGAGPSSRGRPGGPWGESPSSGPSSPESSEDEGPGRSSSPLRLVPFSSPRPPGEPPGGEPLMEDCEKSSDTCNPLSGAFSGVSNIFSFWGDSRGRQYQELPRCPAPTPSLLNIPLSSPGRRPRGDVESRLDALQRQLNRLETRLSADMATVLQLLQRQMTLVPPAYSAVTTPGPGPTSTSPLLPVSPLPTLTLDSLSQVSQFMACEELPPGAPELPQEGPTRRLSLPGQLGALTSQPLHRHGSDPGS
SMILES,MIC90 [1],IC50 (Vero),other results
O=C(NC1C2CC3CC(C2)CC1C3)c1cc(-c2cncnc2)c[nH]1 (centres undefined),0.96 µg/mL,,
O=C(NC12CC3CC(CC(C3)C1)C2)c1cc(-c2ccc(F)nc2F)c[nH]1,< 0.016 µg/mL,,Stability [2]: 47.6%; Stability [3]: Stable; IC50 [4]: > 30 µM; Activity [5]: 1 log10CFU
O=C(NC1C2CC3CC(C2)CC1C3)c1cc(-c2cccnc2)c[nH]1 (centres undefined),0.04 µg/mL,39.5 µg/mL,selectivity ratio (in vitro): 988
O=C(NC1CCCCCC1)c1cc(-c2ccc(Cl)cc2Cl)c[nH]1,1.9 µg/mL,,
O=C(NC1CCCCCCC1)c1cc(-c2ccncc2F)c[nH]1,0.06 µg/mL,,
CN(C(=O)c1cc(-c2ccc(Cl)cc2Cl)cn1C)C1C2CC3CC(C2)CC1C3 (centres undefined),> 32 µg/mL,,
COc1ncccc1-c1c[nH]c(C(=O)NC2C3CC4CC(C3)CC2C4)c1 (centres undefined),< 0.016 µg/mL,,Stability [2]: 0.63%; Stability [3]: Stable; selectivity ratio (in vitro): 737
O=C(NC1C2CC3CC(C2)CC1C3)c1cc(-c2ccc(Cl)cc2)c[nH]1 (centres undefined),0.1 µg/mL,12.6 µg/mL,selectivity ratio (in vitro): 126
COc1ncc(F)cc1-c1c[nH]c(C(=O)NC2C3CC4CC(C3)CC2C4)c1 (centres undefined),0.016 µg/mL,> 64 µg/mL,Stability [2]: 1.97%; Stability [3]: Stable
O=C(NC12CC3CC(CC(C3)C1)C2)c1cc(-c2ccc(Cl)cc2)c[nH]1,0.155 µg/mL,,
COc1cc(F)ccc1-c1c[nH]c(C(=O)NC23CC4CC(CC(C4)C2)C3)c1,< 0.016 µg/mL,,Stability [2]: 23.3%; Stability [3]: Stable
O=C(NC1C2CC3CC(C2)CC1C3)c1cc(-c2ccc(F)cc2F)c[nH]1 (centres undefined),< 0.016 µg/mL,,Stability [2]: 61.4%; Stability [3]: Stable; selectivity ratio (in vitro): 900
O=C(NC1C2CC3CC(C2)CC1C3)c1cc(-c2ccc(F)nc2)c[nH]1 (centres undefined),0.09 µg/mL,,selectivity ratio (in vitro): 391
O=C(NC12CC3CC(CC(C3)C1)C2)c1cc(-c2ccc(Cl)cc2Cl)c[nH]1,0.058 µg/mL,,
O=C(NC1C2CC3CC(C2)CC1C3)c1cc(-c2ccc(Cl)cc2Cl)c[nH]1 (centres undefined),0.06 µg/mL,,inhibition [6]: Dde; inhibition [7]: Dde; MIC90 [8]: 1 µg/mL; MIC90 [9]: 0.25 µg/mL; MIC=>90 [10]: >4 µg/mL
CC1(C)CCC(NC(=O)c2cc3c(Cl)cc(Cl)cc3[nH]2)CC1,0.015 µg/mL,10.5 µg/mL,selectivity ratio (in vitro): 700
COc1ccc(-c2c[nH]c(C(=O)NC3C4CC5CC(C4)CC3C5)c2)cn1 (centres undefined),0.25 µg/mL,,selectivity ratio (in vitro): 137
O=C(NC1C2CC3CC(C2)CC1C3)c1cc(-c2ccc(Cl)nc2Cl)c[nH]1 (centres undefined),0.24 µg/mL,> 64 µg/mL,
COc1ncc(-c2c[nH]c(C(=O)NC3C4CC5CC(C4)CC3C5)c2)cn1 (centres undefined),3.8 µg/mL,,
O=C(NC1C2CC3CC(C2)CC1C3)c1cc(-c2cccnc2F)c[nH]1 (centres undefined),0.06 µg/mL,> 64 µg/mL,Stability [2]: 0%; Stability [3]: Stable
O=C(NC1C2CC3CC(C2)CC1C3)c1cc(-c2ccc(Cl)nc2)c[nH]1 (centres undefined),0.24 µg/mL,> 64 µg/mL,

SMILES,MIC90 [1],IC50 (Vero),other results
O=C(NC1CCCCCCC1)c1cc(-c2ccc(Cl)cc2Cl)c[nH]1,0.23 µg/mL,,
O=C(NC1C2CC3CC(C2)CC1C3)c1cc(-c2ccccc2Cl)c[nH]1 (centres undefined),0.24 µg/mL,> 64 µg/mL,
O=C(NC12CC3CC(CC(C3)C1)C2)c1cc(-c2ccc(F)cc2F)c[nH]1,< 0.016 µg/mL,,inhibition [6]: Dde; inhibition [7]: Dde; Stability [2]: 57.4%; Stability [3]: Stable; IC50 [4]: > 30 µM; MIC90 [8]: 0.25 µg/mL; MIC90 [9]: 0.0625 µg/mL; Activity [5]: 1.5 log10CFU; MIC=>90 [10]: 2 µg/mL
Cn1cc(-c2ccc(Cl)cc2Cl)cc1C(=O)NC1C2CC3CC(C2)CC1C3 (centres undefined),3.7 µg/mL,,
O=C(NC1CCC(F)(F)CC1)c1cc(-c2ccc(Cl)cc2Cl)c[nH]1,6.1 µg/mL,,
Cc1ccc(-c2c[nH]c(C(=O)NC3C4CC5CC(C4)CC3C5)c2)cn1 (centres undefined),1 µg/mL,,
O=C(NC1CCCCCCC1)c1cc(-c2ccncc2Cl)c[nH]1,0.05 µg/mL,,
O=C(NC1CCCCCCC1)c1cc(-c2ccc(F)cc2)c[nH]1,0.03 µg/mL,,
O=C(NC1C2CC3CC(C2)CC1C3)c1cc(-c2ccccn2)c[nH]1 (centres undefined),0.12 µg/mL,47.3 µg/mL,selectivity ratio (in vitro): 394
O=C(NC1C2CC3CC(C2)CC1C3)c1cc(-c2ccc(O)cc2F)c[nH]1 (centres undefined),> 32 µg/mL,,
O=C(NC1C2CC3CC(C2)CC1C3)c1cc(-c2ccccc2F)c[nH]1 (centres undefined),< 0.016 µg/mL,12.6 µg/mL,Stability [2]: 0%; Stability [3]: Stable; selectivity ratio (in vitro): 1320
COc1cc(F)ccc1-c1c[nH]c(C(=O)NC2CCCCCCC2)c1,< 0.016 µg/mL,,Stability [2]: 9.03%; Stability [3]: Stable
COc1ccc(-c2c[nH]c(C(=O)NC3C4CC5CC(C4)CC3C5)c2)c(OC)c1 (centres undefined),0.24 µg/mL,> 64 µg/mL,
O=C(NC12CC3CC(CC(C3)C1)C2)c1cc(-c2ccncc2Cl)c[nH]1,0.03 µg/mL,,Stability [2]: 42.7%; Stability [3]: Stable
O=C(c1cc(-c2ccc(Cl)cc2Cl)c[nH]1)N1CCCC1,9.8 µg/mL,,
COc1cnccc1-c1c[nH]c(C(=O)NC2C3CC4CC(C3)CC2C4)c1 (centres undefined),0.24 µg/mL,58.8 µg/mL,selectivity ratio (in vitro): 245
O=C(NC12CC3CC(CC(C3)C1)C2)c1cc(-c2ccncc2F)c[nH]1,0.06 µg/mL,,
O=C(c1cc(-c2ccc(Cl)cc2Cl)c[nH]1)N1CCOCC1,14.7 µg/mL,,
O=C(NC1C2CC3CC(C2)CC1C3)c1cc(-c2ccc(F)cc2)c[nH]1 (centres undefined),< 0.016 µg/mL,12.6 µg/mL,Stability [2]: 70.4%; Stability [3]: Stable; selectivity ratio (in vitro): 788
O=C(Nc1ccccc1)c1cc(-c2ccc(Cl)cc2Cl)c[nH]1,> 32 µg/mL,,
CCCNC(=O)c1cc(-c2ccc(Cl)cc2Cl)c[nH]1,12.5 µg/mL,,

SMILES,MIC90 [1],IC50 (Vero),other results
CN1CCN(C(=O)c2cc(-c3ccc(Cl)cc3Cl)c[nH]2)CC1,27.4 µg/mL,,
Nc1ncc(F)cc1-c1c[nH]c(C(=O)NC2C3CC4CC(C3)CC2C4)c1 (centres undefined),0.44 µg/mL,33.9 µg/mL,selectivity ratio (in vitro): 77
Cc1ccc(-c2c[nH]c(C(=O)NC3C4CC5CC(C4)CC3C5)c2)c(C)c1 (centres undefined),0.97 µg/mL,,
O=C(NC1C2CC3CC(C2)CC1C3)c1cc(-c2ccncc2Cl)c[nH]1 (centres undefined),< 0.016 µg/mL,58.7 µg/mL,Stability [2]: 73.4%; Stability [3]: Stable; selectivity ratio (in vitro): 3670
O=C(c1cc(-c2ccc(Cl)cc2Cl)c[nH]1)N1CCCCC1,7.7 µg/mL,,
O=C(NC1CCCCCCC1)c1cc(-c2ccc(F)cc2F)c[nH]1,< 0.016 µg/mL,,inhibition [6]: Dde; inhibition [7]: Dde; MIC90 [8]: 0.25 µg/mL; MIC90 [9]: 0.125 µg/mL; MIC=>90 [10]: 2 µg/mL
Cc1nc(F)ccc1-c1c[nH]c(C(=O)NC2C3CC4CC(C3)CC2C4)c1 (centres undefined),0.062 µg/mL,27.7 µg/mL,Stability [2]: 32.3%; Stability [3]: Stable; selectivity ratio (in vitro): 447
O=C(NC1CCCCC1)c1cc(-c2ccc(Cl)cc2Cl)c[nH]1,6.5 µg/mL,,
COc1ccc(-c2c[nH]c(C(=O)NC3C4CC5CC(C4)CC3C5)c2)c(F)c1 (centres undefined),0.47 µg/mL,> 64 µg/mL,
O=C(NC1C2CC3CC(C2)CC1C3)c1cc(-c2ccc(C(F)(F)F)cc2C(F)(F)F)c[nH]1 (centres undefined),1.08 µg/mL,,
O=C(NC1C2CC3CC(C2)CC1C3)c1cc(-c2ccncc2)c[nH]1 (centres undefined),0.45 µg/mL,,selectivity ratio (in vitro): 99
O=C(NC12CC3CC(CC(C3)C1)C2)c1cc(-c2ccc(F)cc2)c[nH]1,< 0.016 µg/mL,,
CC1(C)CCC(NC(=O)c2cc(-c3ccc(Cl)cc3Cl)c[nH]2)CC1,0.5 µg/mL,,
NNC(=O)c1ccncc1 [ISONIAZID],0.04 µg/mL,,
O=C(NC1CCCCCCC1)c1cc(-c2ccc(F)nc2F)c[nH]1,0.03 µg/mL,,inhibition [6]: Dde; inhibition [7]: Dde; Stability [2]: 25.9%; Stability [3]: Stable; MIC90 [8]: 0.5 µg/mL; MIC90 [9]: 0.25 µg/mL; MIC=>90 [10]: 4 µg/mL
O=C(NC1C2CC3CC(C2)CC1C3)c1cc(-c2ccc(F)nc2F)c[nH]1 (centres undefined),< 0.016 µg/mL,,inhibition [6]: Dde; inhibition [7]: Dde; Stability [2]: 43.3%; Stability [3]: Stable; IC50 [4]: > 30 µM; MIC90 [8]: 0.5 µg/mL; MIC90 [9]: 0.125 µg/mL; Activity [5]: 2 log10CFU; MIC=>90 [10]: 4 µg/mL
COc1cc(F)ccc1-c1c[nH]c(C(=O)NC2C3CC4CC(C3)CC2C4)c1 (centres undefined),< 0.016 µg/mL,22 µg/mL,selectivity ratio (in vitro): 1380
O=C(NC1CCCCCCC1)c1cc(-c2ccc(Cl)cc2)c[nH]1,0.24 µg/mL,,
O=C(NC1C2CC3CC(C2)CC1C3)c1cc(-c2ccncc2F)c[nH]1 (centres undefined),0.11 µg/mL,,selectivity ratio (in vitro): 415
O=C(NC1C2CC3CC(C2)CC1C3)c1cc(-c2cccnc2Cl)c[nH]1 (centres undefined),0.28 µg/mL,> 64 µg/mL,
